These results are taken from the NIST ThermoML archive (doi:10.1021/je060376d).

This series is described as follows: refractive index (Na D-line) (dimensionless). Particulars: 298.15 K; 101.33 kPa; Liquid; Standard Abbe refractometry.

The structures appear in SMILES notation. Numbers after ± are expanded uncertainties.

Regarding `COCCOCCOC` [2,5,8-trioxanonane], the refractive index – broadly, a measure of how strongly the sample bends light – is 1.4057 ± 0.0008. For `CC(C)=O` [acetone], the refractive index is on record as 1.3562 ± 0.0012. With `C1CCCCC1` [cyclohexane], the refractive index is 1.4236 ± 0.0008. As to `O=C1CCCCC1` [cyclohexanone], the refractive index turned out to be 1.4498 ± 0.0008.

In the case of `C=CCCCC` [hex-1-ene], the refractive index was 1.3853 ± 0.0008. Consider `CCCCCC` [hexane], for which the refractive index came to 1.3724 ± 0.0007. In the case of `Cc1ccccc1` [toluene], the refractive index is 1.4942 ± 0.0008.
